Data on 7 compounds can be found in article PMC9553805 (Clinical Pharmacokinetics, 2022).

Where “and” joins values, the source holds several entries; their conditions need not be identical. Equal values may be shown once. Read-outs that look alike come from different tables or passages of the source.

For data set [1], the target named is T1, CYP3A4 (Homo sapiens, UniProt P08684). In words: Part A: effect of itraconazole. It counts as in vivo.
In data set [2] the target is T2, CYP2C8 (Homo sapiens, UniProt P10632).
T2 sequence (P10632 1-490): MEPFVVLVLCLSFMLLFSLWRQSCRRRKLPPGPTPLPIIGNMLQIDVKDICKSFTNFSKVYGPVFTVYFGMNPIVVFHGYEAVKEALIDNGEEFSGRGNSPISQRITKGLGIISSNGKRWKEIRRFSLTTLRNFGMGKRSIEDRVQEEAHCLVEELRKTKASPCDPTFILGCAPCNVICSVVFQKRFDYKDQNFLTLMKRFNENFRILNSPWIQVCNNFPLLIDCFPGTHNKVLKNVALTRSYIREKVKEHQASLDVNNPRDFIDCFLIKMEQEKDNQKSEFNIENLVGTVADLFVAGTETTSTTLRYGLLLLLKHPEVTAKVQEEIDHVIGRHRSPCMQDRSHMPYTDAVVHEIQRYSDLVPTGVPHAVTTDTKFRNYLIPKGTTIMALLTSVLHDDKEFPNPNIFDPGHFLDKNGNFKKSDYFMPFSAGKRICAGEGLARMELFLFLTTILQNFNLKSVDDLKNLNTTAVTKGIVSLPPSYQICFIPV

The next data set concerns CYP3A4/CYP2C8. In words: Part B: effect of rifampin. In kind it is in vivo, human.
The conditions of data set [3]: humans, cited from earlier work.
The target in data set [4] is P-glycoprotein (P-gp) (Homo sapiens, UniProt P08183). Nature of the data set: Part E: effect of steady-state tucatinib on pharmacokinetics of digoxin. It counts as in vivo. The settings on record: for clinical classification as inhibitor of P-glycoprotein: steady-state tucatinib 300 mg BID, digoxin probe.
The target of data set [5] is CYP2C9 (Homo sapiens, UniProt P11712). Nature of the data set: Part D: effect of steady-state tucatinib on pharmacokinetics of tolbutamide.
Data set [6] concerns the target T1, CYP3A4. Nature of the data set: Part D: effect of steady-state tucatinib on pharmacokinetics of midazolam. The settings on record: for clinical classification as inhibitor of CYP3A/CYP3A4: steady-state tucatinib 300 mg BID, midazolam probe.
The subject of data set [7] is P-glycoprotein (P-gp). The following applies: in vitro; cited from earlier work.
The subject of data set [8] is CYP2C9. The settings on record: in vitro; cited from earlier work.
The target in data set [9] is T2, CYP2C8. The following applies: for clinical classification as inhibitor of CYP2C8: steady-state tucatinib 300 mg BID, repaglinide probe.
The subject of data set [10] is CYP2C8. The settings on record: in vitro; cited from earlier work.
The subject of data set [11] is CYP2C8. It counts as in vivo, human. The settings on record: 84 subjects enrolled in this study; regardless of phenotype.
A short description of the next data set: Safety assessments. It counts as in vivo, human.
Data set [12] relates to CYP3A4. The settings on record: in vitro; cited from earlier work.
For data set [13] the following is noted: cited from earlier work.
[14] abbreviates: coadministration of itraconazole vs tucatinib alone.
The mark [15] stands for this setting: following gemfibrozil vs tucatinib alone.
The mark [16] stands for this setting: in the presence of rifampin vs tucatinib alone.
Setting [17] is: digoxin + tucatinib vs digoxin alone.
Where [18] appears, read: tolbutamide/midazolam + tucatinib vs tolbutamide/midazolam alone.
The mark [19] stands for this setting: with tucatinib vs tolbutamide/midazolam alone.
[20] abbreviates: tucatinib + itraconazole vs tucatinib alone.
Where [21] appears, read: tucatinib + gemfibrozil vs tucatinib alone.
The mark [22] stands for this setting: tucatinib + rifampin vs tucatinib alone.

T1 sequence (P08684 whole entry): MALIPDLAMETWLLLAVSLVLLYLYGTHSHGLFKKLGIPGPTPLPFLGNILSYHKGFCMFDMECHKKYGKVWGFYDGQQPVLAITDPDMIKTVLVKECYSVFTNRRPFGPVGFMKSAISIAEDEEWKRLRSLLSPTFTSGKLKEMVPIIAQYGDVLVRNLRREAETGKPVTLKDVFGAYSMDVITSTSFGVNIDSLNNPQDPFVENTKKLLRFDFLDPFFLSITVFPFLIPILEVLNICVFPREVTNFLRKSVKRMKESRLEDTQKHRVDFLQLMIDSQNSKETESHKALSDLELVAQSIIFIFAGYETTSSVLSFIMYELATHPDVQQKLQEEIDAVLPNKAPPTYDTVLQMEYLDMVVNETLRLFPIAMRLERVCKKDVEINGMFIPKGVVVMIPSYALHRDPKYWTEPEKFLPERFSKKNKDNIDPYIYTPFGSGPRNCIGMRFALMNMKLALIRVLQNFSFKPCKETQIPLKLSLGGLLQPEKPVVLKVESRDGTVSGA
Sequence of P-glycoprotein (P-gp) (Homo sapiens, UniProt P08183) (P08183 whole entry): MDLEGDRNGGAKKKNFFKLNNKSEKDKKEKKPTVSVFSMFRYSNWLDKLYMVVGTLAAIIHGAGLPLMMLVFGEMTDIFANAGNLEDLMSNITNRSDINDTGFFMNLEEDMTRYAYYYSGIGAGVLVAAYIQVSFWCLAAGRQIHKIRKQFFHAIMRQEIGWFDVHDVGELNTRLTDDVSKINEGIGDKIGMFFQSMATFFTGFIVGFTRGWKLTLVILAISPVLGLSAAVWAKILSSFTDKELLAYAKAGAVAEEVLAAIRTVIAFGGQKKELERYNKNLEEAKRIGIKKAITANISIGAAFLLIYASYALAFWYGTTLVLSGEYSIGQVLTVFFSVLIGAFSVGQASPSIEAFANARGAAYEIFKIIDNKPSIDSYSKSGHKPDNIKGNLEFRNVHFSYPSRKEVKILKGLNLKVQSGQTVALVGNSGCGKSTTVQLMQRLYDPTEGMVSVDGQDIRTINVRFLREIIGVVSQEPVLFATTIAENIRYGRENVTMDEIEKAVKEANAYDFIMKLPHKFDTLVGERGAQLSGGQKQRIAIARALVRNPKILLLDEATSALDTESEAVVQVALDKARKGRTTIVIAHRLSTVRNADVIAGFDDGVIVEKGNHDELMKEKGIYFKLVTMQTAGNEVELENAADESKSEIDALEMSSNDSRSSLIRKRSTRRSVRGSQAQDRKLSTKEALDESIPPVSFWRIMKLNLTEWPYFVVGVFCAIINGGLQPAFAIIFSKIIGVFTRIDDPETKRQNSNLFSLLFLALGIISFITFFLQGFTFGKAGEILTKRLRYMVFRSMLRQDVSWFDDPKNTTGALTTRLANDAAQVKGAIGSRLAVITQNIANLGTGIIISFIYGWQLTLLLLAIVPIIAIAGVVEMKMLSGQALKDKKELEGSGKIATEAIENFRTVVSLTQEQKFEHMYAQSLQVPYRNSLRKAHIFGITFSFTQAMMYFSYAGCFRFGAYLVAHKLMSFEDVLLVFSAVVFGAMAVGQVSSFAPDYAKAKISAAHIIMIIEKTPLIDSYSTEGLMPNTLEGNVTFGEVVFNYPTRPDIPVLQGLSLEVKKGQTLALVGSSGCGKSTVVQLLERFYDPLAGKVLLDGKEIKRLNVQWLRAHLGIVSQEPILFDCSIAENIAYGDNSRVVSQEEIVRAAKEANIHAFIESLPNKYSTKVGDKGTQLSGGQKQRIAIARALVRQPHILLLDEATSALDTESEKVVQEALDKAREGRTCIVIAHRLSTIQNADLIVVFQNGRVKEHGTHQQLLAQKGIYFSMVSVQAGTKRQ
Sequence of CYP2C9 (Homo sapiens, UniProt P11712) (P11712 whole entry): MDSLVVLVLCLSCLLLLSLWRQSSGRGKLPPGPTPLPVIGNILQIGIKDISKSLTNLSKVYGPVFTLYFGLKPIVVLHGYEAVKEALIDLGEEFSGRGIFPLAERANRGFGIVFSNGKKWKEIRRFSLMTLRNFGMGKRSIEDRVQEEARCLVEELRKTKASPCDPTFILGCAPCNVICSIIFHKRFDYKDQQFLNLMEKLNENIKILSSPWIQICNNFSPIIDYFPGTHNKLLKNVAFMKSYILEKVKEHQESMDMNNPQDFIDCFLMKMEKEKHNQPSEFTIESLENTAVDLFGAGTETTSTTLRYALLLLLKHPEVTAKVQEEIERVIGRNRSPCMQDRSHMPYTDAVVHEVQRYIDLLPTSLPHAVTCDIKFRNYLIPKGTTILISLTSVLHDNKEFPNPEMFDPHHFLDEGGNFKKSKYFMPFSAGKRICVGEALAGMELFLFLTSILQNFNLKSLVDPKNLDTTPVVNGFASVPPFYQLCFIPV

In the case of `Cc1cc(Nc2ncnc3ccc(NC4=NC(C)(CO)CO4)cc23)ccc1Oc1ccn2ncnc2c1` (stereo not shown) [ONT-993], at CYP3A4 [1] (setting [14]), the “geometric least squares mean ratio for AUC0–inf” value is on record as 1.6 and the “geometric least squares mean ratio for Cmax” value turned out to be 2.0. At CYP2C8 [2] (setting [15]), the “decrease of metabolic ratio for AUC0–inf” value is “approximately 71%” and the “decrease of metabolic ratio for Cmax” value is given as roughly 81%. In addition, in the data set on CYP3A4/CYP2C8 (setting [16]), the “metabolic ratio for AUC0–inf, fold higher” value is 1.4 fold and the “metabolic ratio for Cmax, fold higher” value stood at 3.3 fold. The “radioactive component in feces, share of the dose” value in data set [3] (feces) is recorded as 37%. In data set [3] (urine), the “radioactive component in urine, share of the dose” value is recorded as 1.5%.

Turning to `C[C@H]1O[C@@H](O[C@H]2[C@@H](O)C[C@H](O[C@H]3[C@@H](O)C[C@H](O[C@H]4CC[C@@]5(C)[C@H](CC[C@@H]6[C@@H]5C[C@@H](O)[C@]5(C)[C@@H](C7=CC(=O)OC7)CC[C@]65O)C4)O[C@@H]3C)O[C@@H]2C)C[C@H](O)[C@@H]1O` [Digoxin, digoxin], on P-glycoprotein (P-gp) [4] (setting [17]), the “increase in plasma exposure based on AUC0–inf” value (shortened to “increase … on AUC0–inf”) is given as “approximately 1.5 fold”, the “increase in plasma exposure based on AUC0–last” value (from here on “increase … on AUC0–last”) is “approximately 1.5 fold” and the “increase in plasma exposure based on Cmax” value (from here on “increase … on Cmax”) is on record as roughly 2.4 fold.

As for `CCCCNC(=O)NS(=O)(=O)c1ccc(CO)cc1` [4-hydroxytolbutamide, reference compound], the “plasma exposures with vs without tucatinib” value on CYP2C9 [5] (setting [18]) is “Similar”.

On to `OCc1ncc2n1-c1ccc(Cl)cc1C(c1ccccc1F)=NC2` [1-hydroxymidazolam], for which, at CYP3A4 [6] (setting [19]), the “effect of tucatinib on exposure based on AUC0–last and AUC0–inf” value is recorded as “no effect”; the “reduction of Cmax” value is listed as “approximately 40%”.

Regarding `Cc1cc(Nc2ncnc3ccc(NC4=NC(C)(C)CO4)cc23)ccc1Oc1ccn2ncnc2c1` [Tucatinib], at CYP3A4 [1] (setting [20]), the “increase … on AUC0–inf” value is ~ 1.3 fold, the “increase … on AUC0–last” value is “approximately 1.3 fold” and the “increase … on Cmax” value is on record as “approximately 1.3 fold”. Moreover, the “type of inhibition of P-glycoprotein (P-gp)” value in the data set on P-glycoprotein (P-gp) [7] is “competitive inhibition”. Also, at CYP2C8 [2] (setting [21]), the “increase … on AUC0–inf” value is roughly 3.0 fold, the “increase … on AUC0–last” value was “approximately 3.0 fold” and the “increase … on Cmax” value is listed as roughly 1.6 fold. Besides, the “type of inhibition of CYP2C9” value in the data set on CYP2C9 [8] was “competitive inhibition”. The “impact on CYP2C9-mediated metabolism in humans” value on CYP2C9 [5] (steady-state tucatinib 300 mg BID, tolbutamide probe) was “no impact”. At P-glycoprotein (P-gp) [4], the “clinical classification as inhibitor of P-glycoprotein” value was “weak inhibitor”. Also, the “clinical classification as inhibitor of P-glycoprotein” value at P-glycoprotein (P-gp) [4] (listed as tucatinib) is reported as “only weakly inhibits”. The “clinical classification as inhibitor of CYP2C8” value on CYP2C8 [9] was “weak inhibitor”. For the same compound, the “clinical classification as inhibitor of CYP2C8” value on CYP2C8 [9] (listed as tucatinib) is on record as “only weakly inhibits”. In addition, in the data set on CYP2C8 [10], the “type of inhibition of CYP2C8” value was “competitive inhibition”. For the same compound, the “tucatinib exposures by CYP2C8 metabolizer phenotype” value with CYP2C8 [11] is “similar”. Besides, the “participants with serum creatinine increases” value in the data set “Safety assessments” (Part A) was found to be 50%. Further, the “participants with serum creatinine increases” value in the data set “Safety assessments” (Part B) turned out to be 4%. Moreover, in “Safety assessments” (Part D), the “participants with serum creatinine increases” value came to 71%. The “participants with serum creatinine increases” value in “Safety assessments” (Part E) was found to be 54%. In addition, in the data set “Safety assessments” (Parts A through E overall), the “Grade 3 or higher events” value is listed as “No Grade 3 or higher events”, the “TEAEs considered Grade 1 (events)” value is 65 and the “total number of TEAEs” value is reported as 71. Moreover, in “Safety assessments” (Parts A through E overall, 37 of 114 subjects), the “subjects reporting TEAEs” value is given as 32.5%. For the same compound, the tolerability result in the data set “Safety assessments” (Parts A–E, alone and with co-administered drugs) is “well tolerated”. Besides, in the data set “Safety assessments” (Parts D and E), the “events of ALT elevation reported as Grade 1 TEAEs” value is given as “five” and the “renal function by cystatin C levels” value is listed as “did not reveal any elevated values”. Besides, the “clinical classification as inhibitor of CYP3A/CYP3A4” value at CYP3A4 [6] is reported as “strong inhibitor”. Moreover, the “clinical classification as inhibitor of CYP3A/CYP3A4” value on CYP3A4 [6] (listed as tucatinib) was “strong CYP3A4 inhibitor”. Further, in the data set on CYP3A4/CYP2C8 (setting [22]), the “decrease in plasma exposure based on AUC0–inf” value turned out to be 48%, the “decrease in plasma exposure based on AUC0–last” value is “approximately 48%” and the “decrease in plasma exposure based on Cmax” value is roughly 37%. Besides, in the data set with CYP3A4/CYP2C8 (tucatinib + rifampin vs tucatinib alone, listed as tucatinib), the “decrease in plasma exposure based on AUC0–inf” value is on record as “approximately 48%”. In the data set on CYP3A4 [12], the “inactivation of CYP3A” value is “time/metabolism-dependent inactivation” and the “type of inhibition of CYP3A4” value is “competitive inhibition”. Besides, the “impact of food on tucatinib exposures” value in data set [13] is recorded as “no clinically relevant impact”.

As for `CCOc1cc(CC(=O)N[C@@H](CC(C)C)c2ccccc2N2CCCCC2)ccc1C(=O)O` [Repaglinide, repaglinide, reference compound], the “increase … on Cmax” value on CYP2C8 [9] (repaglinide + tucatinib vs repaglinide alone) was roughly 1.7 fold.

Regarding `Cc1ncc2n1-c1ccc(Cl)cc1C(c1ccccc1F)=NC2` [Midazolam, midazolam], on CYP3A4 [6] (setting [18]), the “increase … on AUC0–inf” value was 5.7 fold and > 5 fold; the “increase … on AUC0–last” value is listed as 5.3 fold; the “increase … on Cmax” value amounted to 3.0 fold. Also, at CYP3A4 [6] (setting [19]), the “reduction of metabolic ratio for AUC0–inf” value is given as “approximately 83%” and the “reduction of metabolic ratio for Cmax” value is roughly 80%.
